Source: US12714671B2, “Cell membrane lipid-extracted nanoparticles (CLENs) for selective targeting, image analysis and cancer therapy” (priority 2018, dated 2026)
Where a name gives a salt, the structure may show the parent alone.

Tested on: 4T1 cells
Experiment: Cytotoxicity of doxorubicin-loaded CLENs (SRB assay)
Type: cell-based, murine
Conditions: 24 h, free doxorubicin 0.5 μmol/ml
Procedure: 4T1 cells were seeded at 1×10^4 per ml in a 48-well plate. Cells were exposed to different concentrations of doxorubicin-loaded CLENs (4T1, BT-20, and SKBR-3). SRB assay was used to determine percent of cell viability 24 hours following exposure to doxorubicin (5 mol %). Error bars indicate mean±S.D. (n=6).
Sulforhodamine B (SRB) assay was used to determine percent viability of control based on the amount of basic proteins in viable cells following exposure to different CLENs. Cells were seeded at 1×10^4 per ml in a 48-well plate. Columns of cells in the 48 well plate were exposed to either doxil, free doxorubicin, SKBR-3, BT-20 or 4T1 CLENs-loaded with doxorubicin (5 mol %). […] Finally, 1 mL of 1×PBS was added to each well and the plate was analyzed using a fluorescence microplate reader. The fluorescence intensity was measured at excitation wavelength of 540/20 nm and emission wavelength of 590/20 nm using FLX 800 Fluorescence Microplate Reader (Bio-tech Instruments, Winooski, VT).
Enhanced cellular uptake and selective drug targeting are important features of a drug delivery system, but how each translates overall to therapy is critical to success. For this reason, cytotoxicity of three different doxorubicin-loaded CLENs was evaluated for 4T1, BT-20 and SKBR-3 variety, doxil, and free doxorubicin (0.5 μmol/ml) against the growth of 4T1 cells in vitro. […]

Structure (SMILES): COc1cccc2c1C(=O)c1c(O)c3c(c(O)c1C2=O)C[C@@](O)(C(=O)CO)C[C@@H]3O[C@H]1C[C@H](N)[C@H](O)[C@H](C)O1 [free doxorubicin, Doxorubicin hydrochloride]
- cytotoxicity against growth of 4T1 cells (comparison in words): No significant difference in cytotoxicity
